Measurements reported in patent publication US8809344B2, “Compounds, compositions, and methods for control of hepatitis C viral infections” (priority 2008, dated 2014).

How the values were obtained:
[1] = test system: genotype 2a replicon with the L1809F mutation; assay: Genotype 2a replicon with L1809F mutation; type: cell-based; conditions: Hepatitis C virus
Method: Since leucine at amino acid 1809 in the genotype 1b replicon was mutated from a phenylalanine residue to a leucine or a valine residue to confer resistance to 80978, and the residue at the corresponding position in the parental genotype 2a replicon is leucine, mutagenesis was carried out to determine whether a phenylalanine at this position in the genotype 2a replicon was sufficient to confer sensitivity to 80978.

[2] = test system: genotype 2a replicon encoding genotype 1b NS4B amino acids 53 to 218; assay: Chimeric genotype 1b/2a replicon (NS4B aa 53 to 218 from 1b) in Huh7.5 cells; type: cell-based, hepatitis C virus
Excerpt: (§1) That NS4B is the target of 80978 was confirmed by a complementary approach. The differential response to 80978 by HCV genotype 1b and 2a replicons allowed the use of chimeric replicons to narrow down the region of the HCV genotype 1b NS4B coding region that confers sensitivity to 80978. The nucleotide sequence of the wild type HCV genotype 2a NS4B is provided as SEQ ID NO: 7 and the wild type HCV genotype 2a NS4B protein sequence is provided as SEQ ID NO:8. Using a plasmid containing an 80978-resistant stable HCV genotype 2a subgenomic reporter replicon cDNA, six replacement, or chimeric constructs were made, where the regions encoding the following amino acids of NS4B were replaced with the regions encoding the corresponding amino acids of NS4B from HCV genotype 1b: (i) 7-254, (ii) 7-52, (iii) 53-254, (iv) 219-254, (v) 7-52 and 219-254, and (vi) 53 to 218. The full-length NS4B protein is 261 amino acids in length and is provided as SEQ ID NO:2. Thus, if any of these segments of NS4B from genotype 1b are sufficient to confer 80978-sensitivity to a genotype 2a HCV replicon, it will render the chimeric genotype 1b/genotype 2a replicon sensitive to the compound.
(§2) Response to 80978 was measured initially in unselected cells. […] All of the chimeric and wild type control constructs were responsive to Cyclosporin A (CsA).

[3] = test system: genotype 2a replicon encoding genotype 1b NS4B amino acids 53-254; assay: Chimeric genotype 1b/2a replicon (NS4B aa 53-254 from 1b) in Huh7.5 cells; type: cell-based, hepatitis C virus
Excerpt: as §1, §2

[4] = test system: chimeric APV23 (FL-J6/JFH) genotype 2a HCV; assay: HCV APV23 viral infectivity assay in Huh7.5 cells, 3′NTR RNA by realtime quantitative PCR; type: cell-based, hepatitis C virus; conditions: FIG. 6, genotype 2a NS4B coding region
Method: Inhibition of HCV infectivity by AP0080978 and its analogs (AP0080977, non-active enantiomer; AP0089652, racemate; and AP0080935, an aromatic, non-optically active analog of AP0080978) was assayed by exposing cells with infectious chimeric HCV virions in the presence of the compounds. This was accomplished by use of an HCV cell culture system essentially as described in Pietschmann, T. et al. (2006) 103(19): 7408-13, Proc. Natl. Acad. Sci. USA; and elsewhere. Two viral constructs were utilized to characterize inhibition of viral infectivity (FIG. 4). Construct APV23 (FL-J6/JFH) is a full-length, chimeric, genotype 2a HCV genome containing the HCV core through the NS2 first transmembrane domain coding region from the J6 HCV isolate linked to the second NS2 transmembrane domain NS3 through NS5B coding region of HCV strain JFH-1, as shown in FIG. 4 (i.e. an HCV chimera with the “C3 Junction” described in Pietschmann, T. et al. (2006) Proc. Natl. Acad. Sci. USA 103(19): 7408-13; see page 7409 and FIG. 2A of Pietschmann, T. et al.). Construct APV112 was generated by replacing nucleotides encoding amino acids 53 to 218 of the NS4B gene of the APV23 sequence with a corresponding sequence from a genotype 1b (Con1 strain).
Huh7.5 cells were plated at a density of 20,000 cells per well in 96-well plates. The cells were exposed to the chimeric HCV virions at a multiplicity of infection of 0.01. Potential inhibitory compounds were added simultaneously with the chimeric virus. Cells were incubated for 48 hours and then the levels of HCV 3′NTR and GAPDH RNA were quantified by realtime quantitative PCR. Data were analyzed by the comparative Ct method with delta-delta Ct determined relative to 1.0% DMSO. Results in FIGS. 5 and 6 are depicted as log change in 3′NTR copies relative to 1.0% DMSO.

O=C(NCc1cccs1)c1nn2c(c1Cl)N[C@H](c1ccco1)C[C@@H]2C(F)(F)F (single isomer, unassigned) [Compound 80978] was tested, and the EC50 [1] was greater than 25000 nM, the “response to 80978” value ([2]; Geneticin-selected stable replicon-containing cells, amino acids 53-218) was “responsive” and the EC50 ([2]; Hepatitis C virus, Huh7.5) was less than 2500 nM. For the same compound, the “response to 80978” value ([3]; Geneticin-selected stable replicon-containing cells, amino acids 53-254) was “responsive”, the EC50 ([3]; Hepatitis C virus, Huh7.5) was less than 2500 nM and the “chimeric APV23 viral infectivity” value ([4]; listed as AP 80978) was “resistant”. For the same compound, the “chimeric APV23 viral infectivity” value ([4]; listed as AP0080978) was “unaffected”.
